One data set deals with SARS-CoV-2 WT-GHB-03021. The experiment in a line: microbe, parasite or virus in culture. The settings on record: Severe acute respiratory syndrome coronavirus 2, Vero C1008, read-out: SARS-CoV-2 WT-GHB-03021 EC50. The class given is cell-based.
In another data set the test system is SARS-CoV-2 WT-USA-WA1. The experiment in a line: microbe, parasite or virus in culture. The settings on record: Severe acute respiratory syndrome coronavirus 2, Vero C1008, read-out: SARS-CoV-2 WT-USA-WA1 EC50. In kind it is cell-based.
The nature of a further data set: in vitro. The note with it: African green monkey.
A further data set has as its target human cathepsin L (Homo sapiens, UniProt P07711). The experiment in a line: biochemical.

The results in this text go back to article PMC9973015 (mBio, 2023).

Bounds are passed on as bounds.

Sequence of human cathepsin L (P07711 114-333): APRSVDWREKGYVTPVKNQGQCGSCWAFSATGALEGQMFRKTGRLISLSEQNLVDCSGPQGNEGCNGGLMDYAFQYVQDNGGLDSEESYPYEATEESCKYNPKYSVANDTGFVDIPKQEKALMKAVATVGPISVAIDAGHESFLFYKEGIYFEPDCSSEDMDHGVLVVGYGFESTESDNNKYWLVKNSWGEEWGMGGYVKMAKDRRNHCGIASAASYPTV

Turning to `CC(C)(C)[C@H](NC(=O)C(F)(F)F)C(=O)N1C[C@H]2[C@@H]([C@H]1C(=O)N[C@H](C#N)C[C@@H]1CCNC1=O)C2(C)C` [Nirmatrelvir, nirmatrelvir], the EC50 in the data set with SARS-CoV-2 WT-GHB-03021 is 120 nM; in the data set with SARS-CoV-2 WT-USA-WA1, 110 nM. The compound also registered a CC50 in “in vitro” of over 10000 nM.

Regarding `COc1cccc2[nH]c(C(=O)N[C@@H](CC(C)C)C(=O)N[C@@H](C[C@@H]3CCNC3=O)C(=O)CO)cc12` [PF-00835231], the EC50 in the data set with SARS-CoV-2 WT-GHB-03021 was 190 nM. Besides, on human cathepsin L, the IC50 worked out at 130 nM. The compound further registered a CC50 in the data set “in vitro” of over 10000 nM.

For the compound `COc1cccc2[nH]c(C(=O)N3C[C@@H]4CCC[C@@H]4[C@H]3C(=O)N[C@@H](C[C@@H]3CCCNC3=O)C(=O)CO)cc12` [ALG-097161, (1S,3aR,6aS)-N-((S)-4-Hydroxy-3-oxo-1-((S)-2-oxopiperidin-3-yl)butan-2-yl)-2-(4-methoxy-1H-indole-2-carbonyl)octahydrocyclopenta[c]pyrrole-1-carboxamide], the values for the EC50 in the data set with SARS-CoV-2 WT-GHB-03021 and in the data set with SARS-CoV-2 WT-USA-WA1 were 590 nM and 600 nM, respectively. The compound also displayed an IC50 on human cathepsin L of over 10000 nM. Further, the “effect on the viability of uninfected host cells” value with VeroE6 cells is on record as “no effect”. The compound further displayed a CC50 in the data set “in vitro” of over 10000 nM.

Consider `Cn1cnc(Cn2c(=O)[nH]/c(=N\c3cc4cn(C)nc4cc3Cl)n(Cc3cc(F)c(F)cc3F)c2=O)n1` [Ensitrelvir, ensitrelvir], for which, in the data set with SARS-CoV-2 WT-USA-WA1, the 50% effective concentration (EC50) worked out at 210 nM. This compound came in with an IC50 at human cathepsin L of over 10000 nM.
